Converted amounts (≈) assume the structure as drawn.

For this data set the following is noted: buffer; pH 7.4; 200.0 µM.
One may read the solubility (kinetic) as solubility judged after dilution from a stock solution rather than from solid. For `CCOC(=O)CNc1nc(Cl)nc(NC(C)(C)C)n1`, the kinetic solubility is more than 43.2 µg/mL.

`Cc1nc(S(=O)(=O)Nc2ccccc2C(=O)NCC2CC2)cn1C` returned a kinetic solubility of more than 52.3 µg/mL.

For the molecule `CCN(CC)c1ccc(NC(=O)c2cc3c(OC)cccc3[nH]2)cc1`, the solubility (kinetic) was 0.5 µg/mL (≈ 1.48 µM).

Molecule `O=C(NC12CC3CC(CC(C3)C1)C2)N(Cc1ccccc1)Cc1ccncc1` returned a kinetic solubility of 6.2 µg/mL (≈ 16.5 µM).

For `CN(c1ccccc1)c1cc(Br)nc(Br)c1`, the kinetic solubility is 0.4 µg/mL (≈ 1.17 µM).

`Cc1cc(C)c(S(=O)(=O)N2CCc3ccccc32)c(C)c1` returned a kinetic solubility of less than 0.6 µg/mL.

For `COc1ccc(CNc2cc(C)ccn2)c(O)c1`, the kinetic solubility is 29.9 µg/mL (≈ 122 µM).

With `O=C(Nc1ccccc1)C1CCCN1/C=C/C(=O)C(F)(F)F` (stereo unspecified), the solubility (kinetic) was more than 46.8 µg/mL.

Molecule `Cc1nn2c(-c3ccncc3)ccnc2c1Cl` had a solubility (kinetic) of more than 36.7 µg/mL.

`O=C(O)C(=O)Nc1nc(-c2ccc3c(c2)OCCO3)cs1` registered a solubility (kinetic) of more than 45.9 µg/mL.

In the case of `CC[C@H](C)[C@H](NC(N)=O)C(=O)Nc1ccc2c(c1)OCO2`, the kinetic solubility is 38.6 µg/mL (≈ 132 µM).

In turn, `Cc1ccc2c(c1)CCCN2C(=O)c1cc(C)c(C)s1` returned a solubility (kinetic) of 3.9 µg/mL (≈ 13.7 µM).

For the molecule `Cc1cc(C)c(Nc2ncccc2C(=O)O)c(C)c1`, the kinetic solubility was more than 38.4 µg/mL.

Molecule `COc1ccc(CNC(=O)CCC(=O)c2ccc(F)cc2)cc1OC` registered a kinetic solubility of more than 51.8 µg/mL.

Consider `Cc1ccc(C(C)C)cc1OCC(=O)Nc1ccccc1N1CCCC1`, for which the kinetic solubility is less than 0.4 µg/mL.

The molecule `Cn1cccc1C(=O)/C(C#N)=C/c1ccc(F)cc1` registered a kinetic solubility of 36.3 µg/mL (≈ 143 µM).

The molecule `O=S(=O)(Nc1ccccc1Cl)c1cccc2nsnc12` returned a kinetic solubility of more than 48.9 µg/mL.

Take `c1ccc(-c2ccc(-c3ccccn3)s2)nc1`: the solubility (kinetic) was 4.2 µg/mL (≈ 17.6 µM).

`COCCNC(=S)N1CCN(c2nc3ccccc3s2)CC1` gave a kinetic solubility of 35.3 µg/mL (≈ 105 µM).

`Cc1cc(C)c(C)c(S(=O)(=O)NCC(=O)Nc2ccc(F)cc2)c1C` returned a solubility (kinetic) of 3.9 µg/mL (≈ 10.7 µM).

`O=C(COC(=O)CCNS(=O)(=O)c1ccccc1)NC1CC1` had a solubility (kinetic) of 43.8 µg/mL (≈ 134 µM).

Molecule `Cc1cccn2c(=O)c(C=O)c(NCc3ccccc3)nc12` gave a kinetic solubility of 0.2 µg/mL (≈ 0.682 µM).

In the case of `CCCCN=CC1=C(O)CC(c2ccccc2)CC1=O` (stereo unspecified), the kinetic solubility is 34.9 µg/mL (≈ 129 µM).

`CC(C)NC(=O)CCCn1cc([N+](=O)[O-])cn1` yielded a solubility (kinetic) of more than 36 µg/mL.

`O=C(NC1C2CC3CC(C2)CC1C3)C1CCCCC1` (stereo unspecified) had a kinetic solubility of 1.6 µg/mL (≈ 6.12 µM).

As to `O=C(CSc1nc2ccccc2o1)NC1CCS(=O)(=O)C1` (stereo unspecified), the kinetic solubility was more than 49 µg/mL.

Consider `CCCCN(C)C(=O)c1cc2c(s1)-c1ccccc1S(=O)(=O)C2`, for which the kinetic solubility is more than 52.4 µg/mL.

In the case of `O=C(Nc1ccc(F)cc1F)c1cc2ccccc2oc1=O`, the kinetic solubility is less than 0.6 µg/mL.

Molecule `Cc1ccc(S(=O)(=O)C2(C(=O)NCCc3ccccc3)CC2)cc1` gave a solubility (kinetic) of 50.5 µg/mL (≈ 147 µM).

On to `COC(=O)c1ccc(CO/N=C/c2ccc(OC)cc2)o1`, for which the solubility (kinetic) turned out to be 13.9 µg/mL (≈ 48 µM).

`Cl.c1ccc2c3c([nH]c2c1)CCNC3` had a kinetic solubility of more than 31.3 µg/mL.

`CCc1nc2ccc(Cc3ccc4nc(CC)[nH]c4c3)cc2[nH]1`: the kinetic solubility was more than 45.7 µg/mL.

`O=C(O)/C=C/C(=O)Nc1ccc(Oc2ncnc3cc(Cl)ccc23)nc1` yielded a solubility (kinetic) of more than 55.6 µg/mL.

Take `COc1ccccc1C(=O)Nc1ccc(Br)c2cccnc12`: the kinetic solubility was less than 0.4 µg/mL.

In turn, `Cc1ccc(OCc2cc(C(=O)NC3CCOC3)no2)cc1C` (stereo unspecified) registered a solubility (kinetic) of 33.1 µg/mL (≈ 105 µM).

As for `COc1ccc(CCN2C(=O)CSC2=S)cc1OC`, the kinetic solubility amounted to 6.1 µg/mL (≈ 20.5 µM).

Turning to `O=[N+]([O-])/C=C1\C=CC=CN1Cc1ccc(Cl)cc1`, the solubility (kinetic) was found to be 31.7 µg/mL (≈ 121 µM).

As for `COc1ccc(-c2cc(-c3ccc(O)cc3)nc(N)c2C#N)cc1OC`, the solubility (kinetic) stood at 1.7 µg/mL (≈ 4.89 µM).

`Cc1ccc(N2C(=O)CC(N3CCSCC3)C2=O)c(C)c1` (stereo unspecified): the kinetic solubility was more than 45.7 µg/mL.

The molecule `Cc1ccc(C)n1-c1nccc(-c2ccco2)n1` came in with a solubility (kinetic) of 23.5 µg/mL (≈ 98.2 µM).

For `COc1ccc2c(c1)c(C(C)=O)c(C)n2CCc1ccc(OC)c(OC)c1`, the kinetic solubility is 50.8 µg/mL (≈ 138 µM).
